From US7425640B2, “Substituted 5-carboxyamide pyrazoles and [1,2,4]triazoles as antiviral agents” (priority 2004, dated 2008)

Target: HCV RNA-dependent RNA polymerase NS5B (Δ21) (Hepatitis C virus genotype 1b, UniProt P26663)
Assay: Assay for HCV RNA-dependent RNA polymerase activity (SPA, [3H]-GTP incorporation)
Assay type: biochemical
Settings: read-out: Δ21 Activity (IC50 μM); 50 nM NS5B (Δ21), class symbols
Description: Inhibitory activity of the present compounds against HCV RNA-dependent RNA polymerase was assayed according to the methods disclosed in United States Patent Application US2004/038993, content of which is incorporated herein by reference; and those described in Ferrari, E.; Wright-Minogue, J.; Fang, J. W. S.; Baroudy, B. M.; Lau, J. Y. N.; Hong, Z. J. Virol. 1999, 73, 1649.
Briefly, 50 μl reactions containing 20 mM HEPES (pH 7.3), 7.5 mM DTT, 20 units/ml RNasIN, 0.5 μg/ml biotinylated oligoG12, 5 μg/ml polyC, 5 μM GTP, 20 μCi/ml [^3H]-GTP, 10 mM MgCl2, 60 mM NaCl, 100 μg/ml BSA, and 50 nM NS5B (Δ21) were incubated at room temperature for three hours in 96-well plates with or without test compounds. Assay was terminated by the addition of 50 μl 10 mg/ml streptavidin-coated SPA beads supplemented with 100 mM EDTA, and the incorporation of labeled GTP determined by a TopCount Scintillation Counter. IC50 values were calculated from single experiments using 11 serial 2-fold dilutions (0.05-50 μM), and data were considered reliable only when the IC50 value of a positive internal control was within standard deviation range.

HCV RNA-dependent RNA polymerase NS5B (Δ21), sequence (P26663 2420-2989, stated change not applied): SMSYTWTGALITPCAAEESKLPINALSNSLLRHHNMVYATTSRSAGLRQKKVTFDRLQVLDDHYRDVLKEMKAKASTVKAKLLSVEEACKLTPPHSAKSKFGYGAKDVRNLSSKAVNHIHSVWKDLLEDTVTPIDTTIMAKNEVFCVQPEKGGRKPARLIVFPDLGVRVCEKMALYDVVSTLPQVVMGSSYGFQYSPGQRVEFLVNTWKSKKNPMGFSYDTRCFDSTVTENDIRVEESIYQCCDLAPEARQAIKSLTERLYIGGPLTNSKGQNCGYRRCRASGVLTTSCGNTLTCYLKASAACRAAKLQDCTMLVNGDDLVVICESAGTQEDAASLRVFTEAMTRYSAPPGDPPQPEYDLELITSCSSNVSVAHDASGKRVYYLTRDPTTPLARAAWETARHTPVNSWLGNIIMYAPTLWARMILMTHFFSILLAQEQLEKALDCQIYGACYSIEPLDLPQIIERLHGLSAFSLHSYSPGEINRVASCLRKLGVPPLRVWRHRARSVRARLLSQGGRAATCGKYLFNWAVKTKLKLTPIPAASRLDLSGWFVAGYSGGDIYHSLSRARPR

| Compound | IC50 [µM] |
| --- | --- |
| O=C(Cn1nc(C(=O)NCc2ccccc2)cc1C(=O)N[C@H]1CCCC[C@@H]1OCc1ccccc1)N[C@H]1CCCC[C@@H]1OCc1ccccc1 [Compound 50] | 0.1 to 1 |
| O=C(Cn1nc(NC(=O)NC2CCCCC2)cc1C(=O)N[C@H]1CCCC[C@@H]1OCc1ccccc1)N[C@H]1CCCC[C@@H]1OCc1ccccc1 [Compound 118] | 0.1 to 1 |
| O=C(Cn1nc(C(=O)NCc2ccccc2Cl)cc1C(=O)N[C@H]1CCCC[C@@H]1OCc1ccccc1)N[C@H]1CCCC[C@@H]1OCc1ccccc1 [Compound 81] | 0.1 to 1 |
| CC1CCC(OCc2ccccc2)C(NC(=O)c2cc(C(=O)O)nn2CS(=O)(=O)N[C@H]2CCCC[C@@H]2OCc2ccccc2)C1 (stereo partly drawn) [Compound 89] | 0.1 to 1 |
| O=C(Cn1nc(NS(=O)(=O)c2ccc(Cl)c(Cl)c2)cc1C(=O)N[C@H]1CCCC[C@@H]1OCc1ccccc1)N[C@H]1CCCC[C@@H]1OCc1ccccc1 [Compound 61] | 0.1 to 1 |
| CC(C)NC(=O)Nc1cc(C(=O)N[C@H]2CCCC[C@@H]2OCc2ccccc2)n(CC(=O)N[C@H]2CCCC[C@@H]2OCc2ccccc2)n1 [Compound 167] | 0.1 to 1 |
| CCOC(=O)c1cc(C(=O)N[C@H]2CCCC[C@@H]2OCc2ccccc2)n(CC(=O)Nc2ccccc2Oc2ccc(Cl)c(C)c2)n1 [Compound 136] | 0.1 to 1 |
| CCCCNC(=O)Nc1cc(C(=O)N[C@H]2CCCC[C@@H]2OCc2ccccc2)n(CC(=O)N[C@H]2CCCC[C@@H]2OCc2ccccc2)n1 [Compound 124] | 0.1 to 1 |
| Cc1ccc(S(=O)(=O)Nc2cc(C(=O)N[C@H]3CCCC[C@@H]3OCc3ccccc3)n(CC(=O)N[C@H]3CCCC[C@@H]3OCc3ccccc3)n2)cc1 [Compound 106] | 0.1 to 1 |
| O=C(Cn1nc(C(=O)N(c2ccccc2)c2ccccc2)cc1C(=O)N[C@H]1CCCC[C@@H]1OCc1ccccc1)N[C@H]1CCCC[C@@H]1OCc1ccccc1 [Compound 159] | 0.1 to 1 |
| CNC(=O)Nc1cc(C(=O)N[C@H]2CCCC[C@@H]2OCc2ccccc2)n(CC(=O)N[C@H]2CCCC[C@@H]2OCc2ccccc2)n1 [Compound 135] | 0.1 to 1 |
| O=C(Cn1nc(C(=O)O)nc1C(=O)N[C@H]1CCCC[C@@H]1OCc1ccccc1)N[C@H]1CCCC[C@@H]1OCc1ccccc1 [Compound 66] | 0.1 to 1 |
| CCCCOCCCNC(=O)c1cc(C(=O)N[C@H]2CCCC[C@@H]2OCc2ccccc2)n(CC(=O)N[C@H]2CCCC[C@@H]2OCc2ccccc2)n1 [Compound 93] | 0.1 to 1 |
| Nc1c(C(=O)O)nn(CC(=O)N[C@H]2CCCC[C@@H]2OCc2ccccc2)c1C(=O)N[C@H]1CCCC[C@@H]1OCc1ccccc1 [Compound 147] | 0.1 to 1 |
| CON(C)C(=O)c1cc(C(=O)N[C@H]2CCCC[C@@H]2OCc2ccccc2)n(CC(=O)N[C@H]2CCCC[C@@H]2OCc2ccccc2)n1 [Compound 109] | 0.1 to 1 |
| CC(C)CNC(=O)c1cc(C(=O)N[C@H]2CCCC[C@@H]2OCc2ccccc2)n(CC(=O)N[C@H]2CCCC[C@@H]2OCc2ccccc2)n1 [Compound 77] | 0.1 to 1 |
| Cc1ccc(OCC2CC2)c(NC(=O)c2cc(C(=O)O)nn2CC(=O)N[C@H]2CCCC[C@@H]2OCc2ccccc2)c1 [Compound 76] | 0.1 to 1 |
| O=C(Cn1nccc1C(=O)N[C@H]1CCCC[C@@H]1OCc1ccccc1)N[C@H]1CCCC[C@@H]1OCc1ccccc1 [Compound 134] | 0.1 to 1 |
| O=C(Cn1nc(NC(=O)Nc2ccccc2)cc1C(=O)N[C@H]1CCCC[C@@H]1OCc1ccccc1)N[C@H]1CCCC[C@@H]1OCc1ccccc1 [Compound 102] | 0.1 to 1 |
| O=C(Cn1nc(C(=O)NCc2ccc(C(F)(F)F)cc2)cc1C(=O)N[C@H]1CCCC[C@@H]1OCc1ccccc1)N[C@H]1CCCC[C@@H]1OCc1ccccc1 [Compound 127] | 0.1 to 1 |
| O=C(Cn1nc(C(=O)N2CCCC3CC=CC=C32)cc1C(=O)N[C@H]1CCCC[C@@H]1OCc1ccccc1)N[C@H]1CCCC[C@@H]1OCc1ccccc1 (stereo partly drawn) [Compound 86] | 0.1 to 1 |
| CC(C)S(=O)(=O)Nc1cc(C(=O)N[C@H]2CCCC[C@@H]2OCc2ccccc2)n(CC(=O)N[C@H]2CCCC[C@@H]2OCc2ccccc2)n1 [Compound 78] | 0.1 to 1 |
| CN(C(=O)Cn1nc(C(=O)O)cc1C(=O)N[C@H]1CCCC[C@@H]1OCc1ccccc1)[C@H]1CCCC[C@@H]1OCc1ccccc1 [Compound 123] | 0.1 to 1 |
| O=C(Cn1nc(C(=O)NCCc2ccccc2Cl)cc1C(=O)N[C@H]1CCCC[C@@H]1OCc1ccccc1)N[C@H]1CCCC[C@@H]1OCc1ccccc1 [Compound 103] | 0.1 to 1 |

Same assay, conditions: Δ21 Activity (IC50 μM), 50 nM NS5B (Δ21), class symbols

| Compound | IC50 [µM] |
| --- | --- |
| O=C(Cn1nc(C(=O)NCC(c2ccccc2)c2ccccc2)cc1C(=O)N[C@H]1CCCC[C@@H]1OCc1ccccc1)NC1CCCC[C@@H]1OCc1ccccc1 (stereo partly drawn) [Compound 204] | > 1 |
| O=C(Cn1nc(C(=O)NCc2cccc3ccccc23)cc1C(=O)N[C@H]1CCCC[C@@H]1OCc1ccccc1)N[C@H]1CCCC[C@@H]1OCc1ccccc1 [Compound 22] | 0.05 to 0.1 |
| O=C(Cn1nc(NS(=O)(=O)c2ccc(F)cc2)cc1C(=O)N[C@H]1CCCC[C@@H]1OCc1ccccc1)N[C@H]1CCCC[C@@H]1OCc1ccccc1 [Compound 35] | 0.05 to 0.1 |
| COc1ccc(S(=O)(=O)Nc2cc(C(=O)N[C@H]3CCCC[C@@H]3OCc3ccccc3)n(CC(=O)N[C@H]3CCCC[C@@H]3OCc3ccccc3)n2)cc1 [Compound 41] | 0.05 to 0.1 |
| CCOC(=O)c1cc(C(=O)N[C@H]2CCCC[C@@H]2NCc2ccccc2)n(CC(=O)N[C@H]2CCCC[C@@H]2OCc2ccccc2)n1 [Compound 174] | > 1 |
| COc1ccc(NC(=O)c2cc(C(=O)Nc3ccccc3OCc3ccccc3)n(CC(=O)N[C@H]3CCCC[C@@H]3OCc3ccccc3)n2)cc1 [Compound 29] | 0.05 to 0.1 |
| Cc1ccc(OCC2CCCC2)c(NC(=O)Cn2nc(C(=O)O)cc2C(=O)N[C@H]2CCCC[C@@H]2OCc2ccccc2)c1 [Compound 34] | 0.05 to 0.1 |
| O=C(Cn1nc(C(=O)NC2CCCc3ccccc32)cc1C(=O)N[C@H]1CCCC[C@@H]1OCc1ccccc1)N[C@H]1CCCC[C@@H]1OCc1ccccc1 (stereo partly drawn) [Compound 173] | > 1 |
| C=CCOc1ccccc1NC(=O)Cn1nc(C(=O)O)cc1C(=O)N[C@H]1CCCC[C@@H]1OCc1ccccc1 [Compound 171] | > 1 |
| O=C(Cn1nc(NS(=O)(=O)c2ccc3ccccc3c2)cc1C(=O)N[C@H]1CCCC[C@@H]1OCc1ccccc1)N[C@H]1CCCC[C@@H]1OCc1ccccc1 [Compound 33] | 0.05 to 0.1 |
| Cc1ccc(OCc2ccccc2)c(NC(=O)c2nc(C(=O)O)nn2CC(=O)N[C@H]2CCCC[C@@H]2OCc2ccccc2)c1 [Compound 24] | 0.05 to 0.1 |
| O=C(Cn1nc(C(=O)O)cc1C(=O)Nc1cc(Br)ccc1OCC1CCCCC1)N[C@H]1CCCC[C@@H]1OCc1ccccc1 [Compound 12] | < 0.05 |
| CCOC(=O)CNC(=O)Nc1cc(C(=O)N[C@H]2CCCC[C@@H]2OCc2ccccc2)n(CC(=O)N[C@H]2CCCC[C@@H]2OCc2ccccc2)n1 [Compound 183] | > 1 |
| COc1ccc(CNC(=O)c2cc(C(=O)N[C@H]3CCCC[C@@H]3OCc3ccccc3)n(CC(=O)N[C@H]3CCCC[C@@H]3OCc3ccccc3)n2)cc1 [Compound 40] | 0.05 to 0.1 |
| CCCCC(CC)CNC(=O)c1cc(C(=O)N[C@H]2CCCC[C@@H]2OCc2ccccc2)n(CC(=O)N[C@H]2CCCC[C@@H]2OCc2ccccc2)n1 (stereo partly drawn) [Compound 194] | > 1 |
| O=C(Cn1nc(C(=O)O)cc1C(=O)Nc1ccc(F)cc1OCC1CCCCC1)N[C@H]1CCCC[C@@H]1OCc1ccccc1 [Compound 10] | < 0.05 |
| N#CNC(=O)c1cc(C(=O)Nc2ccccc2OCc2ccccc2)n(CC(=O)N[C@H]2CCCC[C@@H]2OCc2ccccc2)n1 [Compound 6] | < 0.05 |
| CCOC(=O)c1cc(C(=O)Nc2cc(C)ccc2OCn2nc(C)cc2C)n(CC(=O)N[C@H]2CCCC[C@@H]2OCc2ccccc2)n1 [Compound 202] | > 1 |
| O=C(Cn1nc(C(=O)O)cc1C(=O)NC12CC3CC(CC(C3)C1)C2)NC1CCCC[C@@H]1OCc1ccccc1 (stereo partly drawn) [Compound 207] | > 1 |
| O=C(Cn1nc(C(=O)Cc2ccccc2)cc1C(=O)N[C@H]1CCCC[C@@H]1OCc1ccccc1)N[C@H]1CCCC[C@@H]1OCc1ccccc1 [Compound 182] | > 1 |
| Cc1ccc(OCc2ccsc2)c(NC(=O)c2cc(C(=O)O)nn2CC(=O)N[C@H]2CCCC[C@@H]2OCc2ccccc2)c1 [Compound 8] | < 0.05 |
| O=C(Cn1nc(C(=O)NCCCN2CCCC2=O)cc1C(=O)N[C@H]1CCCC[C@@H]1OCc1ccccc1)N[C@H]1CCCC[C@@H]1OCc1ccccc1 [Compound 168] | > 1 |
| CCOC(=O)c1cc(C(=O)N[C@H]2CCCC[C@@H]2OCc2ccccc2)n(CC(=O)N(C)[C@H]2CCCC[C@@H]2OCc2ccccc2)n1 [Compound 178] | > 1 |
| CCOC(CCCNC(=O)c1cc(C(=O)N[C@H]2CCCC[C@@H]2OCc2ccccc2)n(CC(=O)NC2CCCC[C@@H]2OCc2ccccc2)n1)OCC (stereo partly drawn) [Compound 195] | > 1 |

Same assay, conditions: Δ21 Activity (IC50 μM), 50 nM NS5B (Δ21), numeric values

| Compound | IC50 [µM] |
| --- | --- |
| O=C(Cn1nc(NS(=O)(=O)c2ccc(Cl)cc2)cc1C(=O)N[C@H]1CCCC[C@@H]1OCc1ccccc1)N[C@H]1CCCC[C@@H]1OCc1ccccc1 [drawing 250] | 0.036 |
| Cc1ccc(OCC2CCC2)c(NC(=O)c2cc(C(=O)O)nn2CC(=O)N[C@H]2CCCC[C@@H]2OCc2ccccc2)c1 [drawing 248] | 0.055 |
| N#CNC(=O)c1cc(C(=O)N[C@H]2CCCC[C@@H]2OCc2ccccc2)n(CC(=O)N[C@H]2CCCC[C@@H]2OCc2ccccc2)n1 [drawing 254] | 0.042 |
